What was measured:
lymphoma = assay: Therapy of lymphoma in a human patient after pretargeting of enzyme conjugates; assay type: in vivo; conditions: 10 mg i.v. after pretargeted Fab′-glucuronidase and esterase conjugates; compared to 10 mg epirubicin prior to targeting
Protocol: A human patient suffering from lymphoma is infused intravenously with a sterile, pyrogen-free PBS solution containing 5 mg each of the 1-13 1-labeled anti-lymphoma Fab′-glucuronidase and esterase conjugates prepared according to Example 1 hereof.
The patient is then infused intravenously with a sterile, pyrogen-free PBS solution containing 10 mg of epirubicin methyl ester.

colorectal cancer = assay: Tumor therapy of colorectal cancer patient with bsMAb, DTPA-enzyme conjugates and CPT-11; assay type: in vivo, human; conditions: then standard dose CPT-11
Protocol: A patient with colorectal cancer is given an injection of the bsMAb comprised of an […]-14 cross-linked with an anti-DTPA Fab' fragment, prepared according to Example 3. After 48 h to allow for maximum accretion in tumors, an amount of galactose-[…], prepared according to Example 4, sufficient to clear nearly all non-target-bound MN-14-IgG ×734-Fab' from the circulation is administered. This amount is between 5 and 15 times the amount of primary bsMAb remaining in circulation at the time-point specified. Three hours after administration of the galactose-[…], a tumor-saturating amount of a mixture of the DTPA-CE and […] conjugates is given, and allowed to clear circulation and normal tissues. […] A patient with colorectal cancer is given an injection of the bsMAb as in Example 6. After 48 h to allow for maximum accretion in tumors, an excess amount of same mixture of the DTPA-CE and DTPA-glucuronidase conjugates as in Example 6 is given. Three hours later an amount of galactose-[…] sufficient to clear nearly all non-target-bound […]-IgG ×734-Fab'-DTPA-enzymes from the circulation is administered. This amount is between 5 and 15 times the amount of primary bsMAb complexes remaining in circulation at the time-point specified.

[1] = target: T1, human beta-D-glucuronidase (Homo sapiens, UniProt P08236); conditions: cited from earlier work
T1 sequence (P08236 23-651): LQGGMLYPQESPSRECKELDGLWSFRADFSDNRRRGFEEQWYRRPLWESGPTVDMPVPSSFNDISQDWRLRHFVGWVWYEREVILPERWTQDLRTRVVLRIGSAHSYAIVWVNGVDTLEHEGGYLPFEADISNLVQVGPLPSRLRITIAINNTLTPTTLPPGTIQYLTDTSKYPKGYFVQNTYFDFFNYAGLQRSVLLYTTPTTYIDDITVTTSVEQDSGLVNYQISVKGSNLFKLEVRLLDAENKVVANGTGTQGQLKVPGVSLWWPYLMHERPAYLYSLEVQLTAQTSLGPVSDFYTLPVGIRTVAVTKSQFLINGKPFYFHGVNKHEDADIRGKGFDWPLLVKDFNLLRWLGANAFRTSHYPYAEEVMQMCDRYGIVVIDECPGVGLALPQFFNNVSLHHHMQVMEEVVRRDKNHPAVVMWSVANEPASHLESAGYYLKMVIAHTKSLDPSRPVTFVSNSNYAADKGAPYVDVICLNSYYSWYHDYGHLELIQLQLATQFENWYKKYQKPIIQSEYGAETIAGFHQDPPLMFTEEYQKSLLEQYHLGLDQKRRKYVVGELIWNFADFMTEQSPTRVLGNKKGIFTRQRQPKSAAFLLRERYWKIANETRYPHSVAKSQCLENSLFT

[2] = test system: uridine diphosphate glucuronosyl transferase (UDP-GT); conditions: pretreatment of rats; cited from earlier work
[3] = pretreatment of rats; cited from earlier work

epirubicin methyl ester
reduction in the lymphoma by radioimmunodetection (lymphoma): significant reduction in the lymphoma

CCc1c2c(nc3ccc(OC(=O)N4CCC(N5CCCCC5)CC4)cc13)-c1cc3c(c(=O)n1C2)COC(=O)[C@]3(O)CC [CPT-11, irinotecan]
effect on tumors (colorectal cancer; Example 6: bsMAb, galactose-W12 clearing, then DTPA-enzyme conjugates): destroying the tumors | effect on tumors (colorectal cancer; Example 7: bsMAb, DTPA-enzyme conjugates, then galactose-W12 clearing): destroying said tumors

COc1cccc2c1C(=O)c1c(O)c3c(c(O)c1C2=O)C[C@@](O)(C(=O)CO)C[C@@H]3O[C@H]1C[C@H](N)[C@@H](O)[C@H](C)O1 [epirubicin]
substrate for human beta-D-glucuronidase [1]: substrate for human beta-D-glucuronidase

CCCC(CCC)C(=O)O [valproic acid]
formation of SN-38G [2]: inhibited the formation of SN-38G | AUC for SN-38 from subsequently-administered CPT-11 [3]: 270%

From patent US7470429B2, “Methods and compositions for increasing the target-specific toxicity of a chemotherapy drug” (priority 1998, dated 2008)
